ChEMBL document CHEMBL1158553, “Synthesis and biological activity of cyclotetrapeptide analogues of the natural HDAC inhibitor FR235222” (Bioorg Med Chem, 2010)
Blank lines part the entries; values can stand above or below the compound they belong to.

Legend:
[1] = target: Histone deacetylase (Homo sapiens) (UniProt Q13547+O15379+Q9UBN7+Q92769+Q9UQL6+Q8WUI4+Q9BY41+Q96DB2+P56524+Q9UKV0+Q969S8); conditions: HeLa, 100 uM
[2] = target: Histone deacetylase 4 (Homo sapiens) (UniProt P56524); conditions: 100 uM
Chain of Histone deacetylase 4 (Homo sapiens) (P56524 whole entry): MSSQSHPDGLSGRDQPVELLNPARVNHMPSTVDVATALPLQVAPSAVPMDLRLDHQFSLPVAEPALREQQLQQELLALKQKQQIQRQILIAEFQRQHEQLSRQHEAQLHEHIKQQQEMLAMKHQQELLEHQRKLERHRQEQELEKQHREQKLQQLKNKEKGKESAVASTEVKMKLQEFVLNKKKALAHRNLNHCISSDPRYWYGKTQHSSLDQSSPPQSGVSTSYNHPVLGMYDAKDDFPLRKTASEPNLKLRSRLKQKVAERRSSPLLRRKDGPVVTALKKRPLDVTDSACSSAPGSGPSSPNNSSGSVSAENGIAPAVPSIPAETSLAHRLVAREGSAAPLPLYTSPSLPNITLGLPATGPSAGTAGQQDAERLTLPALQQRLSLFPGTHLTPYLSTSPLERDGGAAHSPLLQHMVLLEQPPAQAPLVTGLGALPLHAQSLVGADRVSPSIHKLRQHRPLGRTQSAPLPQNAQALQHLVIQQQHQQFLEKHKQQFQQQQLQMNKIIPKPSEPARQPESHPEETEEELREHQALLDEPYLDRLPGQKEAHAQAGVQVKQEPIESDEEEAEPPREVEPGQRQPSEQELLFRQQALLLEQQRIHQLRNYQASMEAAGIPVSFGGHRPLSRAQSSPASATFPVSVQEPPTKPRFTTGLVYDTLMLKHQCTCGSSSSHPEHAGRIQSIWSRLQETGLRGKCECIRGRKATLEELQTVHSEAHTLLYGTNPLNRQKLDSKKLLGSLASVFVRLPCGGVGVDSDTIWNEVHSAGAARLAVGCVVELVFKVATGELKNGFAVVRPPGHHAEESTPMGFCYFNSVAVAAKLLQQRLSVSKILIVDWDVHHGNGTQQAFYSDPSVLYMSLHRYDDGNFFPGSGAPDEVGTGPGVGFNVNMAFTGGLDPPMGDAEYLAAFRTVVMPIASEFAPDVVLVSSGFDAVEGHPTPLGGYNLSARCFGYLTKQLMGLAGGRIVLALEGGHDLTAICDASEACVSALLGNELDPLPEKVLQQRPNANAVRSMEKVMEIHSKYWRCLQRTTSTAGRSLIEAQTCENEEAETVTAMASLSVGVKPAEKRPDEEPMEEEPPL

[3] = target: Histone deacetylase 3 (Homo sapiens) (UniProt O15379); conditions: HEK293; 50 uM
Chain of Histone deacetylase 3 (Homo sapiens) (O15379 whole entry): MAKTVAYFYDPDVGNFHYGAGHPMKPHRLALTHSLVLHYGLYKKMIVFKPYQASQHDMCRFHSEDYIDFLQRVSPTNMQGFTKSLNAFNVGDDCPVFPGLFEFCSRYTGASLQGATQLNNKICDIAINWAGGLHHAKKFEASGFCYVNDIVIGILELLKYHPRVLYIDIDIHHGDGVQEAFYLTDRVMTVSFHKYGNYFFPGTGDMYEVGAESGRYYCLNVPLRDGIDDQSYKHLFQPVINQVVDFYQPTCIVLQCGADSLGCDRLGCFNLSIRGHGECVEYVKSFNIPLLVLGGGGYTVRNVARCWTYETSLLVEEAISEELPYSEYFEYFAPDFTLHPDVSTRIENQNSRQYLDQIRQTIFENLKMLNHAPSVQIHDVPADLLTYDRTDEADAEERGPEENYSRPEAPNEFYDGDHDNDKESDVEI

[4] = target: Histone deacetylase 1 (Homo sapiens) (UniProt Q13547); conditions: HEK293; 50 uM
Chain of Histone deacetylase 1 (Homo sapiens) (Q13547 whole entry): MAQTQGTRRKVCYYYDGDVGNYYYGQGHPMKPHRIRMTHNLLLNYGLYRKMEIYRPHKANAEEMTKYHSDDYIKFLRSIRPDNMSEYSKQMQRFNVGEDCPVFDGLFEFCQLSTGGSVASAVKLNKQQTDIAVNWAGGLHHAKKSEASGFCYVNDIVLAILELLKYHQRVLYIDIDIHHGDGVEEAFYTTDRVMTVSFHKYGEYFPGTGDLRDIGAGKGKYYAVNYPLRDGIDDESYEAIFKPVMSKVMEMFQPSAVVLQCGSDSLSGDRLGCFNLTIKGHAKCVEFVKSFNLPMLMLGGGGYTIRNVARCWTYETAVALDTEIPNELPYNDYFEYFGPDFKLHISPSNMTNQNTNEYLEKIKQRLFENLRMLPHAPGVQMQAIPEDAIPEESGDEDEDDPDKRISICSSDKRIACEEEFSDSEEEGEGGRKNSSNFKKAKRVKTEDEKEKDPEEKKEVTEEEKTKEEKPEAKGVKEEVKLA

[5] = target: Histone deacetylase 2 (Homo sapiens) (UniProt Q92769); conditions: HEK293; 50 uM
Chain of Histone deacetylase 2 (Homo sapiens) (Q92769 whole entry): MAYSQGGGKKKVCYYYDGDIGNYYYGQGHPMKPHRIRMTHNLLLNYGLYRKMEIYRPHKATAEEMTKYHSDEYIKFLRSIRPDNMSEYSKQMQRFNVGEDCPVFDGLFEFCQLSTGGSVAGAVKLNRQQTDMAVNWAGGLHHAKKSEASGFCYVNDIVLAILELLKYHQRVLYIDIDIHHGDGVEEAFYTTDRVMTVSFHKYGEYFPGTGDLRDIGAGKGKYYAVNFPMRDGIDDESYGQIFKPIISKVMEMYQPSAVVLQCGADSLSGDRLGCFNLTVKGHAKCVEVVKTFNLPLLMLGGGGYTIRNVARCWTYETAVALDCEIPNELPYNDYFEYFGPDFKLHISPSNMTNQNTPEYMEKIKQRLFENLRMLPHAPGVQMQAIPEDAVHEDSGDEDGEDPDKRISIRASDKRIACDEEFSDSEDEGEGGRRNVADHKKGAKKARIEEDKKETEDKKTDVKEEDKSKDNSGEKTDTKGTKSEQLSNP

[6] = target: Histone deacetylase 4 (Homo sapiens) (UniProt P56524); conditions: 50 uM
[7] = target: Histone deacetylase 2 (Homo sapiens) (UniProt Q92769); conditions: HEK293; 100 uM
[8] = target: T1, Histone deacetylase 7 (Homo sapiens) (UniProt Q8WUI4); conditions: 100 uM
T1 sequence (whole entry): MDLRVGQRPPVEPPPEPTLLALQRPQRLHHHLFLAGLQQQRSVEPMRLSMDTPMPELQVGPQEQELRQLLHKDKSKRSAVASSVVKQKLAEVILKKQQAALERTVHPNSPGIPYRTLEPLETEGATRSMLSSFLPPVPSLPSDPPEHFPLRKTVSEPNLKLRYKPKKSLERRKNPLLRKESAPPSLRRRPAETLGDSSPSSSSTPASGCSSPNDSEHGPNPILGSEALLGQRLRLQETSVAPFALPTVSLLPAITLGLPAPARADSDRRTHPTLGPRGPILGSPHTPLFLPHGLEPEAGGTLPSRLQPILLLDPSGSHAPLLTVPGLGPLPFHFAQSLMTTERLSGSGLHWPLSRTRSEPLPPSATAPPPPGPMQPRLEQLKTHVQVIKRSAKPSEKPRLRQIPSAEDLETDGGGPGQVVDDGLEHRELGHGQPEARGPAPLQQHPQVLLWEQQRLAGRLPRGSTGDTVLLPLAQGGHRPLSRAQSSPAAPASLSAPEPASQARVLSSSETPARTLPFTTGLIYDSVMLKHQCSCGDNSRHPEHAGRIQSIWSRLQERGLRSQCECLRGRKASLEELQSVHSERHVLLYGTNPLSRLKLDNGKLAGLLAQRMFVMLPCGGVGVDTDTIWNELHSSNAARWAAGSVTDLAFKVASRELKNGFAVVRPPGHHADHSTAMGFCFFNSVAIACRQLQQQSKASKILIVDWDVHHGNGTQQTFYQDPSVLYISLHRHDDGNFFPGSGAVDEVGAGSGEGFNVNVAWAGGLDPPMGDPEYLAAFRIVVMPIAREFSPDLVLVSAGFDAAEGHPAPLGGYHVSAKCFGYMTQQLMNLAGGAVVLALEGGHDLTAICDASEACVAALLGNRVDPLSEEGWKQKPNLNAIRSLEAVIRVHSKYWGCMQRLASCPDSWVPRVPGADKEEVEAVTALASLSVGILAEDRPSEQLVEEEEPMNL

[9] = target: Histone deacetylase 3 (Homo sapiens) (UniProt O15379); conditions: HEK293; 100 uM

inhibition [1]: 30%
SMILES: O=C(O)CC/C=C\C[C@@H]1NC(=O)[C@H](Cc2c[nH]c3ccccc23)NC(=O)[C@H]2CCCN2C(=O)[C@H](Cc2c[nH]c3ccccc23)NC1=O

inhibition [2]: 50%
SMILES: C[C@H](O)C(=O)CCCCC[C@@H]1NC(=O)[C@H]2CCCN2C(=O)[C@H](Cc2ccccc2)NC(=O)[C@H](Cc2c[nH]c3ccccc23)NC1=O

inhibition [3]: 14.7% | inhibition [4]: 42% | inhibition [5]: 30%
SMILES: O=C(CCCCC[C@@H]1NC(=O)[C@H]2CCCN2C(=O)[C@H](Cc2ccccc2)NC(=O)[C@H](Cc2c[nH]c3ccccc23)NC1=O)NO

inhibition [6]: 37%
SMILES: O=C(O)CC/C=C\C[C@@H]1NC(=O)[C@H]2CCCN2C(=O)[C@H](Cc2ccccc2)NC(=O)[C@H](Cc2c[nH]c3ccccc23)NC1=O

inhibition [7]: 34% | inhibition [8]: 48.5% | inhibition [9]: 23.5%
SMILES: O=C(CCCCC[C@@H]1NC(=O)[C@H](Cc2c[nH]c3ccccc23)NC(=O)[C@H]2CCCN2C(=O)[C@H](Cc2c[nH]c3ccccc23)NC1=O)NO
